What was measured:
Assay in all cases: radiometric filter-binding kinase assay, Kinase HotSpot
Conditions in all cases: compound 0.5 µM; ATP 10 µM
ABL2 (human) = ABL2 (human) (UniProt P42684)
ACVRL1 (human) = ACVRL1 (human) (UniProt P37023)
AKT3 (human) = AKT3 (human) (UniProt Q9Y243)
BLK (human) = BLK (human) (UniProt P51451)
CAMK1G (human) = CAMK1G (human) (UniProt Q96NX5)
CAMK4 (human) = CAMK4 (human) (UniProt Q16566)
CAMKK1 (human) = CAMKK1 (human) (UniProt Q8N5S9)
CDC42BPB (human) = CDC42BPB (human) (UniProt Q9Y5S2)
CDK1 CCNB1 (human) = CDK1 CCNB1 (human) (UniProt P06493+P14635)
CDK6 CCND3 (human) = CDK6 CCND3 (human) (UniProt P30281+Q00534)
CLK2 (human) = CLK2 (human) (UniProt P49760)
FER (human) = FER (human) (UniProt P16591)
FGFR2 (human) = FGFR2 (human) (UniProt P21802)
FRK (human) = FRK (human) (UniProt P42685)
GRK4 (human) = GRK4 (human) (UniProt P32298)
GRK7 (human) = GRK7 (human) (UniProt Q8WTQ7)
HIPK2 (human) = HIPK2 (human) (UniProt Q9H2X6)
HIPK4 (human) = HIPK4 (human) (UniProt Q8NE63)
IKBKB (human) = IKBKB (human) (UniProt O14920)
LCK (human) = LCK (human) (UniProt P06239)
LRRK2 (human) = LRRK2 (human) (UniProt Q5S007)
MAP2K1 (human) = MAP2K1 (human) (UniProt Q02750)
MAP3K14 (human) = MAP3K14 (human) (UniProt Q99558)
MAP3K9 (human) = MAP3K9 (human) (UniProt P80192)
MAPKAPK5 (human) = MAPKAPK5 (human) (UniProt Q8IW41)
MST4 (human) = MST4 (human) (UniProt Q9P289)
NEK2 (human) = NEK2 (human) (UniProt P51955)
NEK7 (human) = NEK7 (human) (UniProt Q8TDX7)
PAK1 (human) = PAK1 (human) (UniProt Q13153)
PDGFRB (human) = PDGFRB (human) (UniProt P09619)
PRKD1 (human) = PRKD1 (human) (UniProt Q15139)
RPS6KB1 (human) = RPS6KB1 (human) (UniProt P23443)
RPS6KB2 (human) = RPS6KB2 (human) (UniProt Q9UBS0)
SRPK3 (human) = SRPK3 (human) (UniProt Q9UPE1)
STK11 (human) = STK11 (human) (UniProt Q15831)
STK16 (human) = STK16 (human) (UniProt O75716)
STK3 (human) = STK3 (human) (UniProt Q13188)
TAOK2 (human) = TAOK2 (human) (UniProt Q9UL54)
TAOK3 (human) = TAOK3 (human) (UniProt Q9H2K8)
TEK (human) = TEK (human) (UniProt Q02763)
TYRO3 (human) = TYRO3 (human) (UniProt Q06418)
ULK2 (human) = ULK2 (human) (UniProt Q8IYT8)

FRK (human), sequence (P42685 whole entry, looked up): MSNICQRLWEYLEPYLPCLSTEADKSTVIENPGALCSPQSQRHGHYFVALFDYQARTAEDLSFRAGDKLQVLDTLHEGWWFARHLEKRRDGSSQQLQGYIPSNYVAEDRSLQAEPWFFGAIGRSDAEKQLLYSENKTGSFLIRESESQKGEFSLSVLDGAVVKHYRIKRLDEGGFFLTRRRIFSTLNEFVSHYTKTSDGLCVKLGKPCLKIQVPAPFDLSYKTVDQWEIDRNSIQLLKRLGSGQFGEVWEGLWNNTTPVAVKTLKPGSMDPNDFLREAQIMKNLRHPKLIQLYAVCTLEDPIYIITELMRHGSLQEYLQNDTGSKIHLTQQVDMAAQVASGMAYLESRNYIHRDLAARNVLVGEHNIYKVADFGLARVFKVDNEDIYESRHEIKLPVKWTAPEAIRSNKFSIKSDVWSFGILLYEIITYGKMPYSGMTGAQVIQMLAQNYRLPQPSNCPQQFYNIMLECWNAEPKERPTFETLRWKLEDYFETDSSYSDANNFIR
HIPK4 (human), sequence (Q8NE63 whole entry, looked up): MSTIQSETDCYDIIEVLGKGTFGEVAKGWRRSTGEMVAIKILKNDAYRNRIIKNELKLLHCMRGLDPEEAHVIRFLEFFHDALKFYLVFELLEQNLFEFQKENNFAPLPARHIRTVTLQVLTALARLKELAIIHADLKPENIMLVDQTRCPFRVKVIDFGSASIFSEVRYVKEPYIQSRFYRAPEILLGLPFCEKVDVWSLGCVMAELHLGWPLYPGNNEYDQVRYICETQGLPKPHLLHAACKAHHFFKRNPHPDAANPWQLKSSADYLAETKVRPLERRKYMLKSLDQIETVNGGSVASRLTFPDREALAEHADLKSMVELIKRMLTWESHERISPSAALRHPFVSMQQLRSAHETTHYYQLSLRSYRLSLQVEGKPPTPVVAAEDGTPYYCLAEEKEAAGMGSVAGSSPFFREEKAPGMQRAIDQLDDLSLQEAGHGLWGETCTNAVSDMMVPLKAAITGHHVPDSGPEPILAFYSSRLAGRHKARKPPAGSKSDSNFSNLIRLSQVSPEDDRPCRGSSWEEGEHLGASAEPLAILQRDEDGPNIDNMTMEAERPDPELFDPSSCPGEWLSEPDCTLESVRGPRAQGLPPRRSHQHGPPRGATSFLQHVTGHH
TYRO3 (human), sequence (Q06418 whole entry, looked up): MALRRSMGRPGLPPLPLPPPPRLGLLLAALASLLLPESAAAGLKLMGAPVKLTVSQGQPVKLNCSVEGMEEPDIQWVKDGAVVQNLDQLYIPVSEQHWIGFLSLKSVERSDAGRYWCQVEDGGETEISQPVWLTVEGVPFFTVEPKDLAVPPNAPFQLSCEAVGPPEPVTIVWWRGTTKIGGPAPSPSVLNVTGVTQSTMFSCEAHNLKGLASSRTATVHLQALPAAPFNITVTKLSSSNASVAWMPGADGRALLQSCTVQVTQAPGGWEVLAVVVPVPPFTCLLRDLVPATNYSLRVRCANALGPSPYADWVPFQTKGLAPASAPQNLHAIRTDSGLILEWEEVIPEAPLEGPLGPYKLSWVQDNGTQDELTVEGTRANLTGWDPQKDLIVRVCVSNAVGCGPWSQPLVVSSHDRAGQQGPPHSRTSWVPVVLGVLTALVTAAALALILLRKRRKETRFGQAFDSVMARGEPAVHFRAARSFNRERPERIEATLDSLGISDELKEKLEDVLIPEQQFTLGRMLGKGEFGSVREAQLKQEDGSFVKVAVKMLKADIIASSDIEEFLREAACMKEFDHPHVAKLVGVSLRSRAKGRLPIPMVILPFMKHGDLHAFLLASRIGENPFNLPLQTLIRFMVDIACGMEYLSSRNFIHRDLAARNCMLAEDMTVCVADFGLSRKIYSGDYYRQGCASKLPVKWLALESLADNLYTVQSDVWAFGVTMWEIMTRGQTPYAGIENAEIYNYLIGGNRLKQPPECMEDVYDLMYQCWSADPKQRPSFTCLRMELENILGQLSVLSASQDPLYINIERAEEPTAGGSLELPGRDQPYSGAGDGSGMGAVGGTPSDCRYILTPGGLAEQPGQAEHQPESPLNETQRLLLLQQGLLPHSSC
PDGFRB (human), sequence (P09619 whole entry, looked up): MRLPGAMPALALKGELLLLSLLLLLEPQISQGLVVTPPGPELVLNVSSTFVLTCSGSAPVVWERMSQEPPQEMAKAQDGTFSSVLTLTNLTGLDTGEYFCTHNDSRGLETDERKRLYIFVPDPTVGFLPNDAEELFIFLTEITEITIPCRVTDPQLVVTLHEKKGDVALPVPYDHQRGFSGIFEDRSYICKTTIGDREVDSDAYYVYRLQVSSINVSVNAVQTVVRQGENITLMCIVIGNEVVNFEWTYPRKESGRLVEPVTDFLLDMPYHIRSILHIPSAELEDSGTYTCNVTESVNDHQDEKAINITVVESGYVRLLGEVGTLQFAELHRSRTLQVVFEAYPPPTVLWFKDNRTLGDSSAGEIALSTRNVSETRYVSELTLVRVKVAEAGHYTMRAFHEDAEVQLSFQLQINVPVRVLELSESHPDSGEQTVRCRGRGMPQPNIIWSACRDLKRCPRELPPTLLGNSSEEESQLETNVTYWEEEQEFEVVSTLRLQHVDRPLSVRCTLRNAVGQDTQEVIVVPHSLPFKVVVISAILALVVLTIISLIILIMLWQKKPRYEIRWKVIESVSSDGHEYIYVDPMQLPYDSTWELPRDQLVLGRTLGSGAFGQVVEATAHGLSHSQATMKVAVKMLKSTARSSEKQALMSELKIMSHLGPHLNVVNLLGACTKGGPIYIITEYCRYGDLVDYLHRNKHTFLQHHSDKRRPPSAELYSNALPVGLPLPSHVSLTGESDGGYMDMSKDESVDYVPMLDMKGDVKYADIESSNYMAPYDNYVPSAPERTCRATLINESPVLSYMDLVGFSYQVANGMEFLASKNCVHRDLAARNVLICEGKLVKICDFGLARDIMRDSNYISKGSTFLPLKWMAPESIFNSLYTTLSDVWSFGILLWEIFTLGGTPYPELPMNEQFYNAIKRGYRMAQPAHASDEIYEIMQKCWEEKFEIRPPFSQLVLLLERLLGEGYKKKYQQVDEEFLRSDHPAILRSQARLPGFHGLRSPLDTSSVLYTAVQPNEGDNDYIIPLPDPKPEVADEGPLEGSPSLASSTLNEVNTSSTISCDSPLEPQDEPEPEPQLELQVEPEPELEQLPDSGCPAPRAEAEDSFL
MAP2K1 (human), sequence (Q02750 whole entry, looked up): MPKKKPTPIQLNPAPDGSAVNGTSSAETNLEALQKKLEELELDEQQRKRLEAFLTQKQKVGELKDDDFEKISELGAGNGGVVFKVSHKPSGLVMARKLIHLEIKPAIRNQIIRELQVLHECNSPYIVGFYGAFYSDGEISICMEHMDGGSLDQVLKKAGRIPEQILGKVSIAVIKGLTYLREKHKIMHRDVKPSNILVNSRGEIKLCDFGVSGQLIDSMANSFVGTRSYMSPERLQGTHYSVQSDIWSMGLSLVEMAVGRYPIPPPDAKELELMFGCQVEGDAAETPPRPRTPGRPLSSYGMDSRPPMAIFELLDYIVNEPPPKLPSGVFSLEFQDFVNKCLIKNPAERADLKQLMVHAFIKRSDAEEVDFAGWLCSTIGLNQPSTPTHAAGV
TEK (human), sequence (Q02763 whole entry, looked up): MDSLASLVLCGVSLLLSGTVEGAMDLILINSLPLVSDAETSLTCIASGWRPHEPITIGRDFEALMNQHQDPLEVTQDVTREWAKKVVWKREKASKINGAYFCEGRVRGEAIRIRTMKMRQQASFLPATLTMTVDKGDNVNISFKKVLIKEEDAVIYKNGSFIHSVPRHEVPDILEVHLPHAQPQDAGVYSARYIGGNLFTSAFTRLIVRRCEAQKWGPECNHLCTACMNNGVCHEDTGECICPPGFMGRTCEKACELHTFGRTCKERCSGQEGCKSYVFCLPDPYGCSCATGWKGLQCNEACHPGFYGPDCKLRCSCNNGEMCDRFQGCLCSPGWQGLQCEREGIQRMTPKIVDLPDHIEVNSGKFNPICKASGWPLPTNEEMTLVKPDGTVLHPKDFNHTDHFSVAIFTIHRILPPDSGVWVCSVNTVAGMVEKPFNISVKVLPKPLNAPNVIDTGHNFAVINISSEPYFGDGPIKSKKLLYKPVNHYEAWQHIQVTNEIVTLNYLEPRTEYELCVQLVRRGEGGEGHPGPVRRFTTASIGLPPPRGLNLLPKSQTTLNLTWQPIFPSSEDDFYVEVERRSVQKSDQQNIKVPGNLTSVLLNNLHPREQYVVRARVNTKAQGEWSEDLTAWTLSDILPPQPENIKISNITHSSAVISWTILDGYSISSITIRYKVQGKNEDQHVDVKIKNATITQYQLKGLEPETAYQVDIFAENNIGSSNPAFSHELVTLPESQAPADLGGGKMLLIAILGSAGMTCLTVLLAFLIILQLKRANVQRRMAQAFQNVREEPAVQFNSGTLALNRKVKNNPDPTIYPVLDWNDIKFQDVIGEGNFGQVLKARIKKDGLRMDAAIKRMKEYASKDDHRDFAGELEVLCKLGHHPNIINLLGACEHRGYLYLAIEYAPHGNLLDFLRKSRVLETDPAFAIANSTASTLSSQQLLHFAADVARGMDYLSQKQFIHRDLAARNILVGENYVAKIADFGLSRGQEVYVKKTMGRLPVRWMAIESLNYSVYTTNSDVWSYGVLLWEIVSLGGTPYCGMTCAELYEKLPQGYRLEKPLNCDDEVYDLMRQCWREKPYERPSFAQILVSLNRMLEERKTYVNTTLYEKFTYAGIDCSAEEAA
STK11 (human), sequence (Q15831 whole entry, looked up): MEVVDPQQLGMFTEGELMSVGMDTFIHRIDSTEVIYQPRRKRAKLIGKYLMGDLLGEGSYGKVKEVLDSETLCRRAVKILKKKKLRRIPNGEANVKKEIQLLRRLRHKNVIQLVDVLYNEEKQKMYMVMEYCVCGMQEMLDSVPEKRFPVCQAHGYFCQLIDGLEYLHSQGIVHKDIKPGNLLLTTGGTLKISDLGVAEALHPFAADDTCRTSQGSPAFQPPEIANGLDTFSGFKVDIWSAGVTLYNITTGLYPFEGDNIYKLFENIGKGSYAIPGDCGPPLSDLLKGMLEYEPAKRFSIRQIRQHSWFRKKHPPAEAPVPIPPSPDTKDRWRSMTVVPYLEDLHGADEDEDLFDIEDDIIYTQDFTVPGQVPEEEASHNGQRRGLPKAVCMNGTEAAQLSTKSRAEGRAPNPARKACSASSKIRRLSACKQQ

Ic1cccc(CSc2nnc(-c3ccncc3)o2)c1
residual activity (ABL2 (human)): 110%
residual activity (ACVRL1 (human)): 103%
residual activity (AKT3 (human)): 90.7%
residual activity (BLK (human)): 103%
residual activity (CAMK1G (human)): 95.9%
residual activity (CAMK4 (human)): 91.6%
residual activity (CAMKK1 (human)): 124%
residual activity (CDC42BPB (human)): 96.6%
residual activity (CDK1 CCNB1 (human)): 92%
residual activity (CDK6 CCND3 (human)): 102%
residual activity (CLK2 (human)): 104%
residual activity (FER (human)): 101%
residual activity (FGFR2 (human)): 101%
residual activity (FRK (human)): 85.5%
residual activity (GRK4 (human)): 99.9%
residual activity (GRK7 (human)): 112%
residual activity (HIPK2 (human)): 102%
residual activity (HIPK4 (human)): 98.8%
residual activity (IKBKB (human)): 89.3%
residual activity (LCK (human)): 98.5%
residual activity (LRRK2 (human)): 91.9%
residual activity (MAP2K1 (human)): 95.4%
residual activity (MAP3K14 (human)): 88.3%
residual activity (MAP3K9 (human)): 108%
residual activity (MAPKAPK5 (human)): 83.6%
residual activity (MST4 (human)): 103%
residual activity (NEK2 (human)): 100%
residual activity (NEK7 (human)): 102%
residual activity (PAK1 (human)): 94.8%
residual activity (PDGFRB (human)): 97.7%
residual activity (PRKD1 (human)): 97.6%
residual activity (RPS6KB1 (human)): 100%
residual activity (RPS6KB2 (human)): 103%
residual activity (SRPK3 (human)): 101%
residual activity (STK11 (human)): 103%
residual activity (STK16 (human)): 110%
residual activity (STK3 (human)): 110%
residual activity (TAOK2 (human)): 105%
residual activity (TAOK3 (human)): 103%
residual activity (TEK (human)): 92.6%
residual activity (TYRO3 (human)): 103%
residual activity (ULK2 (human)): 111%

Fc1ccc(-c2nc3n(c2-c2ccncc2)CCS3)cc1
residual activity (ABL2 (human)): 91%
residual activity (ACVRL1 (human)): 97.9%
residual activity (AKT3 (human)): 109%
residual activity (BLK (human)): 97.8%
residual activity (CAMK1G (human)): 95.2%
residual activity (CAMK4 (human)): 99.8%
residual activity (CAMKK1 (human)): 113%
residual activity (CDC42BPB (human)): 115%
residual activity (CDK1 CCNB1 (human)): 91.4%
residual activity (CDK6 CCND3 (human)): 108%
residual activity (CLK2 (human)): 105%
residual activity (FER (human)): 86.4%
residual activity (FGFR2 (human)): 106%
residual activity (FRK (human)): 104%
residual activity (GRK4 (human)): 95.7%
residual activity (GRK7 (human)): 104%
residual activity (HIPK2 (human)): 99.2%
residual activity (HIPK4 (human)): 89.7%
residual activity (IKBKB (human)): 105%
residual activity (LCK (human)): 96.2%
residual activity (LRRK2 (human)): 96.7%
residual activity (MAP2K1 (human)): 93.6%
residual activity (MAP3K14 (human)): 103%
residual activity (MAP3K9 (human)): 83.6%
residual activity (MAPKAPK5 (human)): 97.2%
residual activity (MST4 (human)): 109%
residual activity (NEK2 (human)): 115%
residual activity (NEK7 (human)): 105%
residual activity (PAK1 (human)): 96.1%
residual activity (PDGFRB (human)): 107%
residual activity (PRKD1 (human)): 90.2%
residual activity (RPS6KB1 (human)): 108%
residual activity (RPS6KB2 (human)): 85.6%
residual activity (SRPK3 (human)): 98.5%
residual activity (STK11 (human)): 93.8%
residual activity (STK16 (human)): 106%
residual activity (STK3 (human)): 111%
residual activity (TAOK2 (human)): 95.7%
residual activity (TAOK3 (human)): 98.9%
residual activity (TEK (human)): 95.6%
residual activity (TYRO3 (human)): 104%
residual activity (ULK2 (human)): 106%

COc1ccc(Cl)cc1NC(=O)Nc1cc(C)nc2ccccc12
residual activity (ABL2 (human)): 91.2%
residual activity (ACVRL1 (human)): 98.6%
residual activity (AKT3 (human)): 103%
residual activity (BLK (human)): 99.8%
residual activity (CAMK1G (human)): 102%
residual activity (CAMK4 (human)): 93.6%
residual activity (CAMKK1 (human)): 113%
residual activity (CDC42BPB (human)): 94.4%
residual activity (CDK1 CCNB1 (human)): 81.1%
residual activity (CDK6 CCND3 (human)): 99%
residual activity (CLK2 (human)): 97.7%
residual activity (FER (human)): 92.4%
residual activity (FGFR2 (human)): 96.9%
residual activity (FRK (human)): 98.4%
residual activity (GRK4 (human)): 105%
residual activity (GRK7 (human)): 101%
residual activity (HIPK2 (human)): 101%
residual activity (HIPK4 (human)): 109%
residual activity (IKBKB (human)): 94.3%
residual activity (LCK (human)): 98.2%
residual activity (LRRK2 (human)): 98%
residual activity (MAP2K1 (human)): 101%
residual activity (MAP3K14 (human)): 84.9%
residual activity (MAP3K9 (human)): 98.6%
residual activity (MAPKAPK5 (human)): 89.1%
residual activity (MST4 (human)): 77.6%
residual activity (NEK2 (human)): 106%
residual activity (NEK7 (human)): 103%
residual activity (PAK1 (human)): 94.8%
residual activity (PDGFRB (human)): 105%
residual activity (PRKD1 (human)): 96.6%
residual activity (RPS6KB1 (human)): 96%
residual activity (RPS6KB2 (human)): 106%
residual activity (SRPK3 (human)): 104%
residual activity (STK11 (human)): 103%
residual activity (STK16 (human)): 105%
residual activity (STK3 (human)): 98.9%
residual activity (TAOK2 (human)): 98.2%
residual activity (TAOK3 (human)): 105%
residual activity (TEK (human)): 96.8%
residual activity (TYRO3 (human)): 98.9%
residual activity (ULK2 (human)): 106%

O=C1NC(=O)c2c1c1c3ccccc3[nH]c1n1cncc21
residual activity (ABL2 (human)): 79.9%
residual activity (ACVRL1 (human)): 109%
residual activity (AKT3 (human)): 94.3%
residual activity (BLK (human)): 73.9%
residual activity (CAMK1G (human)): 94.7%
residual activity (CAMK4 (human)): 89.8%
residual activity (CAMKK1 (human)): 63.5%
residual activity (CDC42BPB (human)): 94.8%
residual activity (CDK1 CCNB1 (human)): 85.5%
residual activity (CDK6 CCND3 (human)): 74.3%
residual activity (CLK2 (human)): 94.7%
residual activity (FER (human)): 47.9%
residual activity (FGFR2 (human)): 91.3%
residual activity (FRK (human)): 96.8%
residual activity (GRK4 (human)): 101%
residual activity (GRK7 (human)): 96.2%
residual activity (HIPK2 (human)): 94.4%
residual activity (HIPK4 (human)): 98.5%
residual activity (IKBKB (human)): 95.9%
residual activity (LCK (human)): 87.1%
residual activity (LRRK2 (human)): 61.3%
residual activity (MAP2K1 (human)): 102%
residual activity (MAP3K14 (human)): 83%
residual activity (MAP3K9 (human)): 72.5%
residual activity (MAPKAPK5 (human)): 123%
residual activity (MST4 (human)): 69.4%
residual activity (NEK2 (human)): 87.5%
residual activity (NEK7 (human)): 80.3%
residual activity (PAK1 (human)): 93.9%
residual activity (PDGFRB (human)): 68.4%
residual activity (PRKD1 (human)): 61.4%
residual activity (RPS6KB1 (human)): 70.6%
residual activity (RPS6KB2 (human)): 74.7%
residual activity (SRPK3 (human)): 75.7%
residual activity (STK11 (human)): 45.2%
residual activity (STK16 (human)): 70.9%
residual activity (STK3 (human)): 41%
residual activity (TAOK2 (human)): 89.4%
residual activity (TAOK3 (human)): 66.9%
residual activity (TEK (human)): 78.9%
residual activity (TYRO3 (human)): 88.8%
residual activity (ULK2 (human)): 95.5%
